# According to patent US9341616B2, “Sweet taste receptor chimeric proteins and use thereof” (AJINOMOTO CO., INC., priority 2014, dated 2016):
# Residues, ends and D or L forms follow the SMILES beside them.
# Molecular target: h-mT1R2-481/T1R3mosaicB (UniProt Q8TE23+Q925D8, A537S/A558R/A564V/A568V/A570T/A588V/A645S/A649T/A658V/A698V/A702T/A782V/A793V/A807V/A88D/C582S/C678S/E530V/E534N/E542M/E548N/E725V/F525Y/F541I/F612A/F622V/F665L/F695L/F71L/G696N/G701T/G86K/H484Y/H528R/H728R/I152V/I481V/I486P/I490V/I510L/I518V/I595M/I617V/I643V/I645L/I692L/I695G/I706V/I740A/I803L/K504M/K555R/K565R/K626T/K714N/K818R/K827G/L151M/L521P/L560F/L571I/L578I/L610P/L631F/L636F/L639V/L684P/L688V/L68N/L702I/L72W/L734M/L735F/L800F/L823M/L825Q/M492I/M616G/M644L/M682V/M690V/M744T/M748V/M74L/N540G/N541S/N547G/N675D/N721H/P545F/P561R/P564S/P638T/P67S/P824S/Q123R/Q536L/Q546K/Q550E/Q555R/Q611L/Q676H/Q757R/Q795R/Q831P/R498S/R632Q/R667S/S112P/S124D/S501P/S547N/S550A/S576L/S595F/S610P/S628F/S635P/S637R/S663R/S670G/S679G/S681F/S703N/S717H/S727G/S784D/S804G/T109A/T529S/T542A/T549I/T609V/T629S/T642S/T663I/T694M/T705I/T706G/T716I/T813A/V120A/V508I/V512P/V557A/V573A/V584A/V585L/V613L/V617M/V673M/V687A/V691A/V694A/V718L/V718M/V723A/V729T/V738A/V741L/V774I/V791M/V805L/V812A/V821L/W599R/W676R/W824R/Y533F/Y615F/Y671F/Y680C/Y769S/Y783H/Y794L)
# Sequence (Q8TE23 with tags, fused parts or gaps with the stated changes limits assumed): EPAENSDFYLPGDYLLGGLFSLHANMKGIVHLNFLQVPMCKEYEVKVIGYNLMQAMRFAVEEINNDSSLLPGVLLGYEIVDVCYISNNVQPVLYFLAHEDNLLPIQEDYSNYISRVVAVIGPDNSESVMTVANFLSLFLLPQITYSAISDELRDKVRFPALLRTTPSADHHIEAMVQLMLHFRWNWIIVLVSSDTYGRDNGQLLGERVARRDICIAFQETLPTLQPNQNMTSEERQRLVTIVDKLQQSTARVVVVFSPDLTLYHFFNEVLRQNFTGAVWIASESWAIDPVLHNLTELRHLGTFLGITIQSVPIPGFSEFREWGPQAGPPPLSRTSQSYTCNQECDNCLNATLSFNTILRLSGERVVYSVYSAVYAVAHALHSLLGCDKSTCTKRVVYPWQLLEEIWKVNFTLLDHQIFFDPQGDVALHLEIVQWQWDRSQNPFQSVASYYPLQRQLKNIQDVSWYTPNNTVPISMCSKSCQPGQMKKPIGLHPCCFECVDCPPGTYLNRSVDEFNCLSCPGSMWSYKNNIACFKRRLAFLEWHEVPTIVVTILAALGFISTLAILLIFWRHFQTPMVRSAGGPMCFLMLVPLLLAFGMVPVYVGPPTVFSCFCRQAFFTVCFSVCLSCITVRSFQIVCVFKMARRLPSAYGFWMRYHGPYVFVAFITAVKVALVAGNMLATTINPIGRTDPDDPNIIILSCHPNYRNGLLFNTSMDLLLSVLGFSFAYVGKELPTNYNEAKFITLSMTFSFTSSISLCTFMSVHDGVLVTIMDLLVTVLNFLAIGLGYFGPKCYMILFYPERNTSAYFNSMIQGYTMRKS
# Sequence (Q925D8 with tags, fused parts or gaps with the stated changes limits assumed): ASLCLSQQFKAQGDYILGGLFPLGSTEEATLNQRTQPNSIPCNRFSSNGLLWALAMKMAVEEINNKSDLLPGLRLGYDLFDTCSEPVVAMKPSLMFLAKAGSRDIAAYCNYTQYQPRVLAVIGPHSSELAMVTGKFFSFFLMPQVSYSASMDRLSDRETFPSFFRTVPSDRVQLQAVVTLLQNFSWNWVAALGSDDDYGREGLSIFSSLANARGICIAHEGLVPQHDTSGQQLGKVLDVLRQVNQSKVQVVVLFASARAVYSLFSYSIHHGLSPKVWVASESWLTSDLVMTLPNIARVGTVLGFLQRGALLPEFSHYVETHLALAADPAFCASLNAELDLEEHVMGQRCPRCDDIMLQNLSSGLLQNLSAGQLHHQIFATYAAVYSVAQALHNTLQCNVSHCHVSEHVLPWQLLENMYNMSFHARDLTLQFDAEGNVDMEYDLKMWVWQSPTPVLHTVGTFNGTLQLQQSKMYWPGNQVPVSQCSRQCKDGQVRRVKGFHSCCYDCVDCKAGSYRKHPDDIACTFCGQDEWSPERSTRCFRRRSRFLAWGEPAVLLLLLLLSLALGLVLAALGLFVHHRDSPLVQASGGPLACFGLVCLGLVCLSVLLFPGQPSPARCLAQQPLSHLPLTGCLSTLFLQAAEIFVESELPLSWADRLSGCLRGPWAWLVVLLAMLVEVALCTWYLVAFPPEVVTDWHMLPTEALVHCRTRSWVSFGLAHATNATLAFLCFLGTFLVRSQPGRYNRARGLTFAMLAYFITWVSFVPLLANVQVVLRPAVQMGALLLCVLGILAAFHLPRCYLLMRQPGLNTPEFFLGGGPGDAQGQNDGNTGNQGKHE
# Conditions: Table 6; genes h-mT481/T1R3mB (h-mT1R2-481, T1R3mB); HEK293E cells
row,Compound,S/N
1,"CC1=CC(=O)NS(=O)(=O)O1 [Acesulfame K, acesulfame potassium]",5.6
2,"COC(=O)[C@H](Cc1ccccc1)NC(=O)[C@H](CC(=O)O)NCCCc1ccc(OC)c(O)c1 [Advantame, advantame]",10.2
3,"COC(=O)[C@H](Cc1ccccc1)NC(=O)[C@@H](N)CC(=O)O [Aspartame, aspartame] (HELM PEPTIDE1{D.F.[CO[*:1]]}$$$$V2.0)",7.8
4,"COc1ccc(CCC(=O)c2c(O)cc(O[C@@H]3O[C@H](CO)[C@@H](O)[C@H](O)[C@H]3O[C@@H]3O[C@@H](C)[C@H](O)[C@@H](O)[C@H]3O)cc2O)cc1O [NHDC, neohesperidin dihydrochalcone]",5.8
5,"COC(=O)[C@H](Cc1ccccc1)NC(=O)[C@H](CC(=O)O)NCCC(C)(C)C [Neotame, neotame]",7.7
6,"C[C@H](NC(=Nc1ccc(C#N)cc1)NCC(=O)O)c1ccccc1 [SC-45647, [3-[(S)-1-phenylethyl]-2-(4-cyanophenyl)guanidino]acetic acid]",7.7
7,"O=C1NS(=O)(=O)c2ccccc21.[Na] [Saccharin Na, sodium saccharin]",6.1
8,"OC[C@H]1O[C@H](O[C@]2(CCl)O[C@H](CCl)[C@@H](O)[C@@H]2O)[C@H](O)[C@@H](O)[C@H]1Cl [Sucralose, sucralose]",6.6
9,"OC[C@H]1O[C@@](CO)(O[C@H]2O[C@H](CO)[C@@H](O)[C@H](O)[C@H]2O)[C@@H](O)[C@@H]1O [Sucrose, sucrose]",4.0
